Measured values reported in US20230203022A1, “HETEROCYCLE AND GLUTARIMIDE SKELETON-BASED COMPOUND AND APPLICATIONS THEREOF” (Shanghaitech University, priority 2020, published 2023).

Legend:
Assay type in all cases: cell-based
[1] = test system: Multiple myeloma cell line MM.1S; test: Cell viability / proliferation inhibition IC50 in MM.1S cells, 72 h; conditions: Homo sapiens, MM1.S, 72 h treatment
Description: (§1) The tested cell line used were: Multiple myeloma cell line MM.1S, Mino (human mantle cell lymphoma cell), SR (anaplastic large cell lymphoma cell), PBMC (peripheral blood mononuclear cell), which were purchased from ATCC (American type Culture Collection). The medium was RPMI1640 supplemented with 10% FBS (fetal calf serum) and 1% Penicillin-Streptomycin. The cells used were identified as correct cells by STR cells, and were negative for mycoplasma through routine inspections.
(§2) IC50 values of the compounds of the present disclosure (including examples 1-11 compounds) were measured using Cell Titer Blue, Cell Titer GLO, or WST reagent from Promega Company. Assay details are as follows: Cells were seeded in 100 µL RPMI1640 complete medium containing serum at a density of 15,000 cells/well. After 24 h, the inoculated cells were treated with diluted commercial inhibitor and the compounds of the present disclosure to be tested after serial dilution. After the cells were treated with the compounds of the present disclosure to be tested (including examples 1-11 compounds) for 72 h, cell viability was determined after adding the cell viability detection kit listed above according to the reagent operating instructions. The negative control was DMSO, and the positive control was a commercial inhibitor, both of which were used to treat the cells through the same method as that of the compounds of the present disclosure. The growth inhibition of the compounds of the present disclosure on cells was plotted by Prism Graphpad software, and the IC50 values of the compounds of the present disclosure were calculated therefrom.
(§3) We tested the activities of the compounds of the present invention (including the compounds in Table 1 and Examples 1-11 compounds) in MM.1S cell, mantle cell lymphoma Mino cells, and anaplastic large cell lymphoma SR cells through a dose-dependent manner. These cells overexpressed IKZF⅓ and was not sensitive to existing immunomodulatory drugs. The cells were treated with the compounds of the present invention at 10 different successively decreasing concentrations (starting at the highest concentration of 10 µM; 5-fold serial dilutions) for 72 h, and then the cell viability determination was performed in accordance with CCK-8 reagent operating instructions. The experiment was repeated more than three times.

[2] = test system: Mino (human mantle cell lymphoma cell); test: Cell viability / proliferation inhibition IC50 in Mino lymphoma cells, 72 h, WST; conditions: Mino cell line, WST reagent
Description: as §1, §2, §3

[3] = test system: SR (anaplastic large cell lymphoma cell); test: Cell viability / proliferation inhibition IC50 in SR lymphoma cells, 72 h, WST; conditions: SR cell line, WST reagent
Description: as §1, §2
We tested the activities of the compounds of the present invention (including the compounds in Table 1 and Examples 1-11 compounds) in MM.1S cell, mantle cell lymphoma Mino cells, and anaplastic large cell lymphoma SR cells through a dose-dependent manner. These cells overexpressed IKZF⅓ and was not sensitive to existing immunomodulatory drugs. […]

TNF-α = TNF-α inhibition in LPS-stimulated PBMC cells (ELISA); conditions: LPS 1 µg/ml, 18-20 h
Description: as §1
PBMC cells were cultured at 37° C. in 5% CO2 atmosphere, and then seeded in 96-well plates at 1×10^6 cells/well. […] Cells were pretreated with compounds and vehicle control (DMSO) for 1 h, then stimulated with lipopolysaccharide (LPS; 1 µg/ml), and continually cultured for 18-20 h. Then, the supernatant was collected, and tested for TNF-α level by ELISA kit. IC50 was then calculated by Graphpad Prism 7.0.

IKZF3 = biological target: T1, IKZF3 (Homo sapiens, UniProt Q96SW2+Q9UKT9); test: Western blotting assay of IKZF3 degradation in MM.1S cells; conditions: 16 h, Western blot, FIG. 1
T1 construct: degradation of IKZF1 and IKZF3 proteins caused by the compounds of the present invention in multiple myeloma cells MM.1S; endogenous in cells; host or cells: MM.1S (ATCC)
T1 sequence (Q9UKT9 whole entry): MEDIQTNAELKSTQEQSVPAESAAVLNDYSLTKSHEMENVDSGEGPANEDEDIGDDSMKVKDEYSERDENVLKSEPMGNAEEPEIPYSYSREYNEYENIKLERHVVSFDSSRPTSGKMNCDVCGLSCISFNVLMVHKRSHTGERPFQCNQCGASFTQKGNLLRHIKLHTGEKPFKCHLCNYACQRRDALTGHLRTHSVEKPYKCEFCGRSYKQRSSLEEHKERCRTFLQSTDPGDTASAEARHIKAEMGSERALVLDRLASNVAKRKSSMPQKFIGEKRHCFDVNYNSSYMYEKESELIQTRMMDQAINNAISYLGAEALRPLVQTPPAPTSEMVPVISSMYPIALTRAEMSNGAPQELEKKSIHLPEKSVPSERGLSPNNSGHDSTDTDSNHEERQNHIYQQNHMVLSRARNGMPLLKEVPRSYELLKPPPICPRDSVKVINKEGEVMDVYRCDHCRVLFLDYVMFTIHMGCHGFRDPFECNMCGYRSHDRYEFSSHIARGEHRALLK
T1 sequence (Q96SW2 whole entry): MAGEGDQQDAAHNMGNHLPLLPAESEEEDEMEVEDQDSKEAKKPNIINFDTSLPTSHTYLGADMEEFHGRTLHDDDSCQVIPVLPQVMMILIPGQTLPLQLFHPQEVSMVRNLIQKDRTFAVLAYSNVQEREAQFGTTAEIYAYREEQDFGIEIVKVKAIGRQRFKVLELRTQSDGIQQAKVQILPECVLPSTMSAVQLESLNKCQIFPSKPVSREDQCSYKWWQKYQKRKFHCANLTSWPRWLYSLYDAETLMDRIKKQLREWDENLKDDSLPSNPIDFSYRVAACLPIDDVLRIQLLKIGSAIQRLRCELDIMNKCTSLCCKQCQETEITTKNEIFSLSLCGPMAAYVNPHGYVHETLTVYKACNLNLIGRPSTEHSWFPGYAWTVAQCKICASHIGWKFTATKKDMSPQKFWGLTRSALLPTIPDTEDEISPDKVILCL
T1 sequence (Q16531 whole entry partner): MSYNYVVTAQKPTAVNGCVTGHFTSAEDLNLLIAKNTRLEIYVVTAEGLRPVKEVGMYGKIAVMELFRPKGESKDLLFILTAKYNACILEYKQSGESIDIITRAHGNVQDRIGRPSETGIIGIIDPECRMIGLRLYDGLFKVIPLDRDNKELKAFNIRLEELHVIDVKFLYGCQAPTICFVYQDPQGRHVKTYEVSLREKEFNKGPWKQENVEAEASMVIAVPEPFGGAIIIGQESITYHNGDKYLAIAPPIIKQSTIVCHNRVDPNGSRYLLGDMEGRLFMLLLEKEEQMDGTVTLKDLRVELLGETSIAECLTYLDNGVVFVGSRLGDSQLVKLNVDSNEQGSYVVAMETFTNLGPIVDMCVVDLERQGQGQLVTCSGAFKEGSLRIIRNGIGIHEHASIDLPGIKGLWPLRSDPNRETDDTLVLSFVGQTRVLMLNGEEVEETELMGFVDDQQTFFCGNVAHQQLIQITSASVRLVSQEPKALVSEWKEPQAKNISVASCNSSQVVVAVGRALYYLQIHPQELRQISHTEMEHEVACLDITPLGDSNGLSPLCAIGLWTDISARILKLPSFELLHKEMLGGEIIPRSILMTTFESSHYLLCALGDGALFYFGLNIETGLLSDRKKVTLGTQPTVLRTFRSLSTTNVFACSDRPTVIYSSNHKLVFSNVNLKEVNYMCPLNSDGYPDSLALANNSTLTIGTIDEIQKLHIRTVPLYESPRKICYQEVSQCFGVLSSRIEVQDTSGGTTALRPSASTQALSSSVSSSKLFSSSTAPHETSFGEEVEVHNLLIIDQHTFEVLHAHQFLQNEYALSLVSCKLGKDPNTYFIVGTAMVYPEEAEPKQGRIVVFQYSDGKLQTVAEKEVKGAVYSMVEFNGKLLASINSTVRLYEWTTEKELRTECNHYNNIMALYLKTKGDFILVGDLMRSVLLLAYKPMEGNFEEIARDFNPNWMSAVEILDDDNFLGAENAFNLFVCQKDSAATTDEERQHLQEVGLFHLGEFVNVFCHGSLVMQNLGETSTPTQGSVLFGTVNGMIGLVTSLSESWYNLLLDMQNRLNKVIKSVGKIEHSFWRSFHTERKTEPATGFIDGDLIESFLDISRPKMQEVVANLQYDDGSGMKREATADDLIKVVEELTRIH
Description: Most antibodies were purchased from Cell Signaling Technology, including IKZF1 (#9034S), IKZF3(#15103S). GAPDH antibody was purchased from Abcam Company.
Tumor cells were plated in a 24-well plate at a cell seeding density of 3×10^5 cells/mL, with 1 mL culture media per well. After 24 h, the cells were treated with different concentrations of the compounds of the present disclosure. After 16 hours, the cells were collected, and washed with PBS. The supernatant was discarded, and the cells were placed on ice, and treated with RIPA protein lysate containing Halt protease and phosphatase inhibitor. The lysate was centrifuged at 10000 RPM at 4° C. for 10 minutes, and the supernatant was collected. An equal amount of proteins were loaded in 4X SDS sample solution, denatured at 95° C. for 5 minutes, and then freezed to -20° C. or directly subjected to protein electrophoresis (4-15% gradient gel, Bio-rad). […]
DC50 value (the drug concentration required for degrading proteins by 50%, abbreviated as DC50) reads method: comparing the gray values of the Western blotting bands for the drug treatment with the gray values of the Western blotting band for the DMSO control, and reading the drug concentration range corresponding to the gray value of the Western blotting bands for the drug treatment which is equal to half of the gray value of the Western blotting band for the DMSO control. […]

SMILES	IC50 [1]	IC50 (TNF-α)	other results
O=C1CCC(N2Cc3c(SCc4ccc5cc(CN[C@]67CC8CC(C[C@@H](C8)C6)C7)ccc5n4)cccc3C2=O)C(=O)N1 (some centres unmarked) [SIAIS338048, 3-(4-(((6-((adamantan-1-ylamino)methyl)quinolin-2-yl)methyl)thio)-1-oxoisoindolin-2-yl)piperidine-2,6-dione]	0.06 ± 0.04 nM	–	–
O=C1CCC(N2Cc3c(SCc4nc(CNC56CC7CC(CC(C7)C5)C6)cs4)cccc3C2=O)C(=O)N1 (centres unmarked) [SIAIS287129, 3-(4-(((4-((adamantan-1-ylamino)methyl)thiazol-2-yl)methyl)thio)-1-oxoisoindolin-2-yl)piperidine-2,6-dione]	0.181 nM	–	IC50 ([2]; Homo sapiens, MINO): 2.59 nM; IC50 ([3]; Homo sapiens, SR): 4.02 nM
O=C1CCC(N2Cc3c(SCc4cc5cc(CNC67CC8CC(CC(C8)C6)C7)ccc5o4)cccc3C2=O)C(=O)N1 (centres unmarked) [SIAIS287116, 3-(4-(((5-((adamantan-1-ylamino)methyl)benzofuran-2-yl)methyl)thio)-1-oxoisoindolin-2-yl)piperidine-2,6-dione]	0.003 nM	< 1 nM	IC50 ([2]; Homo sapiens, MINO): ~0.39 nM; IC50 [2]: 0.387 nM; IC50 ([3]; Homo sapiens, SR): ~0.5 nM; IC50 [3]: 0.454 nM; concentration at which IKZF3 protein is significantly degraded (IKZF3): less than 0.01 nM
Nc1cccc2c1C(=O)N(C1CCC(=O)NC1=O)C2=O (centres unmarked) [Pomalidomide, reference compound]	–	–	IC50 ([2]; Homo sapiens, MINO): 48 nM
O=C1CCC(N2Cc3c(SCc4csc(C(=O)NC56CC7CC(CC5C7)C6)n4)cccc3C2=O)C(=O)N1 (centres unmarked) [SIAIS355073, 4-(((2-(2,6-dioxopiperidin-3-yl)-1-oxoisoindolin-4-yl)thio)methyl)-N-(octahydro-2,5-methanopentalen-6a-yl)thiazole-2-carboxamide]	0.51 ± 0.25 nM	–	–
O=C1CCC(N2Cc3c(SCc4nc(CN[C@H]5[C@H]6CC7CC(C6)C[C@@H]5C7)cs4)cccc3C2=O)C(=O)N1 (some centres unmarked) [SIAIS313185, 3-(4-(((4-((adamantan-2-ylamino)methyl)thiazol-2-yl)methyl)thio)-1-oxoisoindolin-2-yl)piperidine-2,6-dione]	0.16 ± 0.02 nM	–	–
O=C1CCC(N2Cc3c(SCc4cc5cc(C(=O)NC67CC8CC(CC(C8)C6)C7)ccc5s4)cccc3C2=O)C(=O)N1 (centres unmarked) [SIAIS338091, N-(adamantan-1-yl)-2-(((2-(2,6-dioxopiperidin-3-yl)-1-oxoisoindolin-4-yl)thio)methyl)benzo[b]thiophene-5-carboxamide]	0.02 nM	< 1 nM	–
O=C1CCC(N2Cc3c(SCc4csc(CNC56CC7CC(CC(C7)C5)C6)n4)cccc3C2=O)C(=O)N1 (centres unmarked) [SIAIS313160, 3-(4-(((2-((adamantan-1-ylamino)methyl)thiazol-4-yl)methyl)thio)-1-oxoisoindolin-2-yl)piperidine-2,6-dione]	0.13 ± 0.03 nM	< 1 nM	–
O=C1CCC(N2Cc3c(SCc4ccc(CNC56CC7CC(CC(C7)C5)C6)o4)cccc3C2=O)C(=O)N1 (centres unmarked) [SIAIS313118, 3-(4-(((5-((adamantan-1-ylamino)methyl)furan-2-yl)methyl)thio)-1-oxoisoindolin-2-yl)piperidine-2,6-dione]	0.09 ± 0.02 nM	–	–
O=C1CCC(N2Cc3c(SCCn4cc(CN[C@]56CC7CC(C[C@@H](C7)C5)C6)nn4)cccc3C2=O)C(=O)N1 (some centres unmarked) [SIAIS287097, 3-(4-((2-(4-((adamantan-1-ylamino)methyl)-1H-1,2,3-triazol-1-yl)ethyl)thio)-1-oxoisoindolin-2-yl)piperidine-2,6-dione]	–	< 5 nM	–
Nc1cccc2c1CN(C1CCC(=O)NC1=O)C2=O (centres unmarked) [Lenalidomide, reference compound]	–	10 to 100 nM	–
O=C1CCC(N2C(=O)c3cccc(NCc4ccc(CNC56CC7CC(CC(C7)C5)C6)cn4)c3C2=O)C(=O)N1 (centres unmarked) [SIAIS355067, 4-(((5-((adamantan-1-ylamino)methyl)pyridin-2-yl)methyl)amino)-2-(2,6-dioxopiperidin-3-yl)isoindoline-1,3-dione]	4.46 ± 0.18 nM	< 5 nM	–
